Assay results reported in patent publication US20190059368A1, “3,5-DIMETHOXYSTILBENE ANALOGS AND USES THEREOF” (The United States of America, as represented by the …, priority 2017, published 2019).
Values after ≈ are worked out from the molar mass of the structure shown.

Legend:
[1] = system: Cryptococcus neoformans ATCC 90113; test: Antimicrobial microplate assay (modified CLSI); type: cell-based; details: Cr. neoformans
Experimental: All organisms were obtained from the American Type Culture Collection (ATCC; Manassas, Va., USA) and included the fungi Cryptococcus neoformans ATCC 90113 and the bacteria Staphylococcus aureus ATCC 29213, methicillin-resistant S. aureus ATCC 33591 (MRSA), and Mycobacterium intracellulare ATCC 23068. All organisms were tested using modified versions of the CLSI (formerly NCCLS) methods. For all organisms excluding My. intracellulare, optical density was used to monitor growth. Medium supplemented with 5% AlamarBlue® (BioSource International, Camarillo, Calif., USA) was utilized for growth detection of My. intracellulare. Samples (dissolved in DMSO) were serially diluted in 20% DMSO/saline and transferred (10 μl) in duplicate to 96-well flat-bottom microplates. Inocula were prepared by correcting the OD630 of microbe suspensions in Sabouraud Dextrose for Cr. neoformans, cation-adjusted Mueller-Hinton (Difco) at pH 7.3 for Staphylococcus spp., and 5% AlamarBlue® (BioSource International) in Middlebrook 7H9 broth with OADC enrichment, pH=7.0 for My. intracellulare, to afford an assay volume of 200 μl and final target inocula of: Cr. neoformans.: b 1.5×10^3, My. intracellulare: 2.0×10^6, and Staphylococcus spp.,: 5.0×10^5 CFU/ml. Final sample test concentrations were 1/100th the DMSO stock concentration. Drug controls (Ciprofloxacin (ICN Biomedicals, Ohio, USA) for bacteria and Amphotericin B (ICN Biomedicals) for fungi) were included in each assay. All organisms were read at either 530 nm using the Biotek Powerwave XS plate reader (Bio-Tek Instruments, VT) or 544ex1590em (My. intracellulare) using the Polarstar Galaxy Plate Reader (BMG LabTechnologies, Germany) before and after incubation: Staphylococcus spp. at 35° C. for 16-20 h, Cr. neoformans at 35° C. for 70-74 h, and My. intracellulare at 37° C. and 10% CO2 for 70-74 h. IC50 Values (concentrations that afford 50% inhibition relative to controls) werecalculated using XLfit 4.2 software (IDBS, Alameda, Calif.) using fit model 201.

C. fragariae = test: Direct bioautography, antifungal; type: cell-based, Colletotrichum fragariae; details: 2 mM, 4 μl spotted (2 μl of the positive controls), average of 2 assays; for zone of inhibition at 2000 µM: Colletotrichum fragariae, read-out: zones of inhibition
Experimental: (§1) The analogs were tested for activity against Colletotrichum acutatum SIMMONDS, C. fragariae BROOKS, and C. gloeosporioides (PENZ) PENZ & SACC. in Penz., using a direct bioautography method as previously described by Tabanca et al. (Nat. Prod. Commun. 2008, 3, 1073) and Wang, et al. (J. Agric. Food Chem. 2013, 61, 4551). Technical grade commercial fungicide standards benomyl, cyprodinil, azoxystrobin, and captan were used at 0.9-1.61 μg/μl concentrations in 95% EtOH. After sample application, each TLC plate was subsequently sprayed with a spore suspension (3.0×10^5 spores/ml) of the fungus of interest and incubated in a moisture chamber for 4 days at 26° C. with a 12 hour photoperiod. Clear zones of fungal growth inhibition on the TLC plate indicated the presence of antifungal constituents in each extract or pure compound. The test compounds were prepared at 2 mM soln. in 95% EtOH, and 4 μl were spotted on the plates (2 μl of the positive controls).

Colletotrichum acutatum = test: Direct bioautography, antifungal; type: cell-based; details: 2 mM, 4 μl spotted (2 μl of the positive controls), average of 2 assays; for zone of inhibition at 2000 µM: Colletotrichum acutatum, read-out: zones of inhibition
Experimental: as §1

C. gloeosporioides = test: Direct bioautography, antifungal; type: cell-based, Colletotrichum gloeosporioides; details: 2 mM, 4 μl spotted (2 μl of the positive controls), average of 2 assays; for zone of inhibition at 2000 µM: Colletotrichum gloeosporioides, read-out: zones of inhibition
Experimental: as §1

[2] = system: Meloidogyne incognita second-stage juveniles (J2); test: M. incognita assay with previously hatched J2 immersed in test solutions; details: in vivo
Experimental: Two types of assays were used to investigate activity against M. incognita: i) eggs were immersed in solutions of the test compounds, and ii) second-stage juveniles (J2) previously hatched from eggs were immersed in the test solutions. These assays were conducted with procedures similar to those in Meyer, et al. (J. Nematol. 2006, 38, 333). M. incognita race 1 (originally isolated in 2013 from a field in Maryland) was grown in the greenhouse on pepper (Capsicum annuum L.) cultivar PA-136. Egg masses were hand-picked from plant roots, rinsed three times with sterile distilled H2O, and agitated in 0.6% NaClO for 3.5 minutes to separate and surface-sterilize eggs. The eggs were rinsed in sterile distilled H2O and stored overnight at 4° C. before use in egg immersion assays. To collect J2 for direct immersion into the test compounds, sterilized eggs were placed into a hatching chamber made with a Spectra/Mesh Nylon Filter (openings 25 μm in diameter; Spectrum Laboratories Inc., Rancho Dominguez, Calif., USA) in an autoclaved dish. J2 that passed through the filter within 3 days were used immediately for assays.
The assays were conducted in 96-well polystyrene plates. For the assays with immersed eggs, each well received approximately 50 eggs in 35 μl of sterile deionized water (SDW). For assays with previously hatched J2, a suspension of approximately 50 J2 in 35 μl of SDW was placed into each well. Each well then received 165 μl of treatment or control. The solvent used to dissolve the test chemicals was a 1:1:1 mixture referred to herein as CTD: equal parts Cremophor® EL Castor Oil (BASF Corporation, Vandalia, Ill., USA), Tween 80® (Sigma-Aldrich, St. Louis, Mo., USA), and DMSO (Sigma-Aldrich). A high and low rate of each compound was tested. After addition to the nematode suspensions in the wells, the low and high rates were 83.3 and 166.7 μg/ml of each test compound, respectively, dissolved in 0.5% and 1.0% of each of the three combined solvents. Controls were CTD equivalent to the low and high rates, and SDW. Because of the large number of treatments, the test compounds were divided into two groups for the egg immersion assays. The compounds tested in the egg immersion Assay 1 were 3, 6a, 6e, 6f, 6g, 6n, 7a, 7c, 7e, 7f, 7n, 11, 12, 16, and 17. The compounds tested in the egg immersion Assay 2 were 6b, 6h, 6i, 6j, 6k, 6l , 7b, 7g, 7h, 7i, 7j, 7k, 7l, and 7m (data not shown). Test compounds used for assays with previously hatched J2 were selected based on results with the egg assays. […]
Each polystyrene culture plate was covered with a plastic adhesive sheet (Excel Scientific, Inc., Victorville, Calif., USA) and incubated at 25° C. […] In egg immersion assays, total numbers of hatched J2, and numbers of mobile and immobile J2, were counted after 2 and 7 days incubation in the test compounds. In the first assay with previously hatched J2, the numbers of mobile and immobile J2 were counted after 1 and 2 days incubation, the treatments removed and replaced with a SDW rinse, and 2 days later the mobile vs. immobile J2 counted again. […]
Data from the M. incognita assays were analyzed with the statistical package JMP 11.2.0 (SAS Institute, Cary, N.C., USA). Differences among numbers of hatched J2 in each treatment, and among percentage of mobile J2 per treatment (number mobile J2/total J2×100), were determined by the ANOVA, and means were compared using Tukey Kramer's adjustment for multiple comparisons (P<0.05). […]

Compound	zone of inhibition at 2000 µM (C. fragariae)	zone of inhibition at 2000 µM (Colletotrichum acutatum)	zone of inhibition at 2000 µM (C. gloeosporioides)	also measured
C[C@@H]1[C@H](O)[C@@H](C)/C=C/C=C/C=C/C=C/C=C/C=C/C=C/[C@H](O[C@@H]2O[C@H](C)[C@@H](O)[C@H](N)[C@@H]2O)C[C@@H]2O[C@](O)(C[C@@H](O)C[C@@H](O)[C@H](O)CC[C@@H](O)C[C@@H](O)CC(=O)O[C@H]1C)C[C@H](O)[C@H]2C(=O)O [Amphotericin B, reference compound]	–	–	–	IC50 [1]: 698 nM; MIC [1]: 1.353 µM (≈ 1.25 µg/mL)
CO/C=C(/C(=O)OC)c1ccccc1Oc1cc(Oc2ccccc2C#N)ncn1 [Azoxystrobin, azoxystrobin]	–	–	–	zones of inhibition (C. fragariae): 17.5 mm; zones of inhibition (Colletotrichum acutatum): 15 mm; zones of inhibition (C. gloeosporioides): 17.5 mm
CCCCNC(=O)n1c(NC(=O)OC)nc2ccccc21 [Benomyl, benomyl]	20 mm	17 mm	20 mm	–
O=C1C2CC=CCC2C(=O)N1SC(Cl)(Cl)Cl (stereo not drawn) [Captan, captan]	18.5 mm	11.5 mm	18.5 mm	–
COc1cccc(/C=C/c2cc(OC)c(C)c(OC)c2)c1 [Compound 6b, (E)-1,3-dimethoxy-5-(3-methoxystyryl)-2-methylbenzene]	–	–	–	effect on mobility of J2 previously hatched in water and immersed directly (in words) [2]: only 6g and 7k had an effect on J2 mobility
